From patent US9233164B2, “Water soluble fullerene formulations and methods of use thereof” (BOARD OF REGENTS OF THE UNIVERSITY OF NEBRASKA, priority 2011, dated 2016)

Test system: superoxide
Experiment: Cell-free superoxide scavenging by EPR spectroscopy (HX+XO or FMN source, CMH spin probe)
Type: biochemical
Conditions: 400 U/ml SOD1
Description: The ability of C60-polymer complexes to scavenge superoxide was measured by EPR spectroscopy, as reported (Rosenbaugh et al. (2010) Biomaterials 31:5218-26). Briefly, superoxide generated by HX—XO or a photosensitizer, FMN, was detected using the CMH spin probe. Samples contained 0.025 mM DF and 0.005 mM DETC buffer (pH 7.4), 0.025 mM CMH, 0.025 mM HX and 10 mU XO (or 0.02 mM FMN instead of HX—XO) and C60-polymer complexes at different concentrations. After complete mixing, each sample was incubated at r.t. for 5 minutes and 50 μl of the sample was loaded into a glass capillary, which was then inserted into the capillary holder of the EPR spectrometer. The CMH radical signal was recorded and EPR spectrum amplitude was quantified.

superoxide dismutase [SOD1]
Effect on EPR spectrum: completely abolished the EPR spectrum
